Literature values in patent publication US12642292B2, “Multi-compartment oral pouched product” (NICOVENTURES TRADING LIMITED, priority 2021, dated 2026).

Legend:
[1] = for solubility in water / aqueous environment: for CBD aqueous environment (e.g., saliva)
[2] = when isolated; converts via isomerization into trans-bixin

Compound | solubility in water / aqueous environment [1] | solubility in fats and alcohols ([1]; fats and alcohols) | chemical stability [2]
CC(/C=C/C=C(C)/C=C/C(=O)O)=C\C=C\C=C(C)\C=C\C=C(C)\C=C\C(=O)O (stereo in doubt) [norbixin, (2E,4E,6E,8E,10E,12E,14E,16E,18E)-4,8,13,17-tetramethylicosa-2,4,6,8,10,12,14,16,18-nonaenedioic acid] | water soluble |  | 
C=C(C)[C@@H]1CCC(C)=C[C@H]1c1c(O)cc(CCCCC)cc1O [CBD, cannabidiol, reference compound] | insoluble in an aqueous environment |  | 
COC(=O)/C=C/C(C)=C\C=C\C(C)=C\C=C\C=C(C)\C=C\C=C(C)\C=C\C(=O)O [bixin] | insoluble in water | soluble in fats and alcohols | chemically unstable when isolated
